≈ marks a conversion by molar mass, not a printed value. Residues, ends and D or L forms follow the SMILES beside them. *: point of attachment. Palmitoyl = CCCCCCCCCCCCCCCC(=O)*
What was measured:
E. coli DBM 3001 = format: cell-based
Description: (§1) A Bioscreen C automated microbiology growth curve analysis system (Growth Curves, Piscataway, NJ, USA) was used for the quantitative determination of antimicrobial activity (minimal inhibitory concentration, MIC) of PAL/LCA-peptides. Optical density was measured with a wide bandpass filter (wavelength range 420–580 nm) at regular intervals and temperatures. This assay was performed in a special microtiter plate (10 × 10 wells) that allowed the simultaneous testing of a large number of samples against several microorganisms. The total testing volume was 100 µL, obtained by mixing 10 µL of microbial culture with OD600 equal to 0.1 with growth medium and a solution of the tested compounds. The positive controls were vancomycin and tetracycline for Bacillus subtilis (100 µg/mL) for Gram-positive bacteria, kanamycin, and tetracycline for Acinetobacter baumannii (100 µg/mL) for Gram-negative bacteria, and clotrimazole or amphotericin (100 µg/mL) for fungi. The maximal concentration of tested lipoproteins was 1 mg/mL. A pure growth medium was used as the negative control. The measurement period was 25 h. The lowest concentration with a 100% inhibition effect for 24 h of incubation was chosen as the MIC. The antibacterial activity of each compound was expressed as the minimum inhibitory concentration MIC (MIC is the lowest concentration of the compound needed to inhibit the growth of bacterial cells) and IC50 (IC50 is the concentration of the compound needed to inhibit the growth of bacterial cells by 50%).

E. faecalis DBM 3075 = format: cell-based
Description: as §1

plasmid pGreen 0029 = assay: DNA binding assay (gel retardation); conditions: circular or linearized forms, tested ratios
Description: This assay was performed as described by Park et al. ([1998]), with a few modifications. […] The reaction mixture was incubated at room temperature for 1 h. Subsequently, 4 µL of native loading buffer (10% Ficol, 10 mM Tris–HCl (pH 7.5), 50 mM EDTA, 0.25% bromophenol blue) was added. An aliquot was applied to 1% agarose gel electrophoresis in 0.5xTris borate-EDTA buffer. Circular plasmid DNA was isolated from (Luria–Bertani medium with AMPI in final concentration 100 µg/mL) bacterial strain E. coli DH5α / pBluescriptII KS- that had been grown overnight, and linearization was performed overnight by enzymatic reaction using restriction endonuclease EcoRV at 37 °C. The evaluation was performed by visualizing the DNA with the intercalation dye Midori Green Advanced DNA Stain under UV light. Reduced electrophoretic mobility compared to the control is considered to be evidence of peptide binding to DNA.
According to the previous results, we decided to clarify one of the possible molecular interaction mechanisms, the ability of the studied lipopeptides to bind microbial plasmid DNA. Based on the assumption that pore formation is only one of the influencing factors, which arose from previous results, the effect on one of the possible intracellular targets, DNA, was determined. This determination was carried out on isolated plasmid DNA, specifically on two plasmids, pGreen 0029 and pBluescript II KS- in circular and linearized form.

- MIC (E. coli DBM 3001; DBM 3001, 24 h): 78.9 µg/mL (≈ 89.6 µM)
- IC50 (E. coli DBM 3001; DBM 3001, 25 h): 100.0 µg/mL (≈ 114 µM)
- MIC (E. faecalis DBM 3075; DBM 3075, 24 h): 32.6 µg/mL (≈ 37 µM)
- IC50 (E. faecalis DBM 3075; DBM 3075, 25 h): 40 µg/mL (≈ 45.4 µM)
- influence on electrophoretic mobility of plasmid DNA (plasmid pGreen 0029): did not exhibit any influence
SMILES: CCCCCCCCCCCCCCCC(=O)N[C@@H](CC(C)C)C(=O)N[C@H](C(=O)N[C@@H](CCCCN)C(=O)N[C@@H](CCCNC(=N)N)C(=O)N[C@@H](C)C(=O)NCC(N)=O)C(C)C [SHP-1.2, PAL-LVKRAG-NH2] (Palmitoyl-LVKRAG-NH2)

— paper PMC11003925, “Antimicrobial activity and properties of de novo design of short synthetic lipopeptides” (Folia Microbiologica, 2024)
